Reference: PMC5483439, “The Effect of Pungent and Tingling Compounds from Piper nigrum L. on Background K^+ Currents” (Frontiers in Pharmacology, 2017)

System: background current of mouse trigeminal neurons
Assay: Whole-cell patch clamp on cultured mouse trigeminal neurons
Assay type: cell-based
Conditions: 100 μM
Procedure: Trigeminal ganglia neurons were isolated from Swiss CD-1 mice (Charles River Laboratories, Sulzfeld, Germany). All experiments involving animals were carried out in accordance with the European Union Community Council’s guidelines and approved by the competent state office of the Federal Land of Northrhine Westphalia (file number 87-51.04.2010.A180). At postnatal day 2–5, the mice were sacrificed by decapitation. The brain was removed, and both trigeminal ganglia were excised. The ganglia were washed in PBS+/+ (Invitrogen, Karlsruhe, Germany) and collected in Leibovitz Medium (L15, Invitrogen) on ice. The ganglia were transferred to Dulbecco’s modified essential medium (DMEM) containing 0.025% collagenase (type IA, Sigma–Aldrich). The minced ganglia were incubated for 45 min in a humidified atmosphere (37°C, 95% humidity, 6% CO2) before trituration. The cell suspension was centrifuged at 1000 rpm for 4 min at room temperature and the pellet was resuspended in F-12 medium (Invitrogen; 31331-D-MEM/F-12, GlutaMax^TM) supplemented with 10% fetal bovine serum (FBS^TM; Invitrogen), 200 U/mL penicillin and 200 U/mL streptomycin. The cell suspension (50 μL) was then plated on poly L-lysine (0.01%) coated glass coverslips (30 mm, Sarstedt, Nümbrecht, Germany), placed in cell culture dishes (35 mm) and kept in a humidified atmosphere (37°C, 95% humidity, 6% CO2) for 1 h. Subsequently, F-12 medium (2 mL) supplemented with FBS (10%), 200 U/mL penicillin and 200 U/mL streptomycin was added to each dish. The cells were kept in an incubator (37°C, 95% humidity, 6% CO2) until use.
The recordings were performed using the whole-cell configuration of the patch-clamp technique. The cells were maintained in an extracellular recording solution containing 140 mM NaCl, 5 mM KCl, 2 mM MgCl2, 2 mM CaCl2, 10 mM HEPES and 10 mM glucose, pH 7.4. The Ca^2+ and Na^+- free extracellular solution contained: 140 mM NMDG-Cl, 5 mM KCl, 2 mM MgCl2, 5 mM EGTA, 10 mM HEPES, pH 7.4. The patch electrodes were pulled from borosilicate glass (1.2 mm OD × 1.17 mm ID; Harvard apparatus, Edenbridge, Kent, United Kingdom) and fire polished to 2.5–4 MΩ tip resistance using a horizontal pipette puller (Zeitz Instruments, Munich, Germany) to obtain a patch of approximately 1–2 μm diameter. The pipette solution contained 140 mM KCl, 1 mM MgCl2, and 10 mM HEPES, pH 7.4. All recordings were performed at room temperature with an EPC7 amplifier (List-Medical Electronic, Darmstadt, Germany). The capacity and serial resistance were adjusted manually. The substances were applied via a custom-made manifold superfusion device. […] The data were acquired using Pulse software (HEKA, Lambrecht, Germany) and analyzed with PulseFit (HEKA, Lambrecht, Germany). Unless otherwise stated, the data are expressed as the mean ± SEM. […]

SMILES: O=C(/C=C/C=C/c1ccc2c(c1)OCO2)N1CCCCC1 [1a, piperine]
- membrane potential change in current clamp (Na+/Ca2+-free conditions): mild depolarization
- current inhibition when applied under acidic pH (Na+/Ca2+-free solution, with XE-991, acidic pH, p = 0,00012): significantly decreased
- decrease in the background current (physiological extracellular solution, 13 of 38 neurons, <30 μm diameter): 19.5 ± 1.8%
